Reference: patent US20230295157A1, “3-(1H-IMIDAZOL-2-YL)-2,3,8,8A-TETRAHYDROINDOLIZIN-5(1H)-ONE DERIVATIVES USEFUL AS FACTOR XIA INHIBITORS” (JANSSEN PHARMACEUTICA NV, priority 2020, published 2023)
Like-named read-outs stand apart in the source and are kept apart here.

Key:
[1] = molecular target: human plasma kallikrein (Homo sapiens (Human), UniProt P03952); test: Kallikrein inhibition assay (FLINT) utilizing a quenched AMC peptide substrate; type: biochemical; conditions: 30 min preincubation, read-out: Kallikrein Kin Inh IC50
In short: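 Enzyme (2 nM final) pre-incubated 30 min at room temperature with compound (11-point, 3-fold, top 1 μM, 2% DMSO), then 50 μM Z-Gly-Pro-Arg-AMC added in Tris pH 7.5 buffer. Kinetic fluorescence 340/440 nm every 5 min over 30 min; IC50 from 4-parameter logistic fit.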

[2] = molecular target: Factor XIa (Homo sapiens (Human), UniProt P03951); test: Factor XIa inhibition assay (FLINT) utilizing a fluorophore-quencher pair peptide substrate; type: biochemical; conditions: 30 min preincubation, kinetic reads over 30 min, read-out: FXIa Kin Inh IC50
In short: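 FXIa ([…]) preincubated 30 min with compound (11-point 3-fold dilution, top 100 nM, 2% DMSO), then 15 μM quenched FXI Arg146-based peptide added; Tris pH 7.5, CaCl2, BSA, CHAPS. Fluorescence 485/520 nm read kinetically every 5 min over 30 min at RT; IC50 by 4-parameter fit.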

[3] = kinetic reads over 30 min, Z-Gly-Pro-Arg-AMC substrate 50 μM
[4] = 5Fam-KLTRAETV-K5Tamra substrate 15 μM
[5] = 5Fam-[…]-K5Tamra substrate 15 μM

Sequence of human plasma kallikrein (P03952 391-638): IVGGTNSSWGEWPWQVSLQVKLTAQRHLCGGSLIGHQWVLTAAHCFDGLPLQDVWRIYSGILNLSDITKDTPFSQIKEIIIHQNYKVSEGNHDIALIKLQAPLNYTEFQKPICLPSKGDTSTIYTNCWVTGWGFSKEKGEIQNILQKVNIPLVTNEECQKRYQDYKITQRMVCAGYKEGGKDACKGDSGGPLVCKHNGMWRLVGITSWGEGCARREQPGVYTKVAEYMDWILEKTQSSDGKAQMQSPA
Sequence of human plasma kallikrein (P03952 20-390 partner): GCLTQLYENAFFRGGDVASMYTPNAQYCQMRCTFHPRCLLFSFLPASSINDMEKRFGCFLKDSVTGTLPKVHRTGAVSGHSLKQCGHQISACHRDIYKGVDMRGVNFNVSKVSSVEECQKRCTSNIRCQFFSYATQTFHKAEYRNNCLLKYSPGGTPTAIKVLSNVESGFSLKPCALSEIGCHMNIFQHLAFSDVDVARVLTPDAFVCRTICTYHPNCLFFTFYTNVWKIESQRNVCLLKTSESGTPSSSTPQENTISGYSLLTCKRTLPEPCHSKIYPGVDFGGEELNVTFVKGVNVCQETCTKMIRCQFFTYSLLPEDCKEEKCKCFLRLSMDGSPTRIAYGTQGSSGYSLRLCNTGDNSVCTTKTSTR
Sequence of Factor XIa (P03951 388-625): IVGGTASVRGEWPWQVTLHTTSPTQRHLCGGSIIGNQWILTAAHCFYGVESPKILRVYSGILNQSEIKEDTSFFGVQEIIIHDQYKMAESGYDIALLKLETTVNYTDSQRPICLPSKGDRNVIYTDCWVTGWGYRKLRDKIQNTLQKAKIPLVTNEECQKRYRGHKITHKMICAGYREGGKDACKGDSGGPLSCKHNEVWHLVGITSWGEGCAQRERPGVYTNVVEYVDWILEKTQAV
Sequence of Factor XIa (P03951 19-387 partner): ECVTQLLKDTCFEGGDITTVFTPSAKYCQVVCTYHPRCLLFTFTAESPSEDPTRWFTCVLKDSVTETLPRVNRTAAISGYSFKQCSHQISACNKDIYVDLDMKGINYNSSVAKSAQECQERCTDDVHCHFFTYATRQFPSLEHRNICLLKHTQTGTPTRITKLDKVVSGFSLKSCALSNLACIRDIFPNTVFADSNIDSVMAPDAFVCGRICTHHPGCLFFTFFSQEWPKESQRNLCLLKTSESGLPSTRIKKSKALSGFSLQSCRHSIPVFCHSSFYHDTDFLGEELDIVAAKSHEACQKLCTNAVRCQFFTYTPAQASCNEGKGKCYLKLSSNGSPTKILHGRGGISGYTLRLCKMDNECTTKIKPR

Compound	IC50 [1, 3]	IC50 [2, 4]	IC50 [2, 5]	IC50 ([1]; μM, kinetic reads)
O=C1C=C(c2c(-n3cnnn3)ccc(Cl)c2F)C[C@@H]2CC[C@@H](c3ncc(-c4ccc5[nH]c(=O)[nH]c5c4)[nH]3)N12 [Example 292, 5-(2-((3S,8aS)-7-(3-Chloro-2-fluoro-6-(1H-tetrazol-1-yl)phenyl)-5-oxo-1,2,3,5,8,8a-hexahydroindolizin-3-yl)-1H-imidazol-5-yl)-1,3-dihydro-2H-benzo[d]imidazol-2-one]	0.0007 µM	0.3 nM		
O=C1C=C(c2c(-n3cnnn3)ccc(Cl)c2F)C[C@H]2CC[C@H](c3ncc(-c4ccnc(N5CCC5)c4F)[nH]3)N12 (single isomer, unassigned) [Example 110, (3*R,8aR)-3-(5-(2-(azetidin-1-yl)-3-fluoropyridin-4-yl)-1H-imidazol-2-yl)-7-(3-chloro-2-fluoro-6-(1H-tetrazol-1-yl)phenyl)-2,3,8,8a-tetrahydroindolizin-5(1H)-one]	0.0069 µM		11 nM	
O=C1C=C(c2c(-n3cnnn3)ccc(Cl)c2F)CC2CCC(c3nc(-c4cccc(-c5ccn[nH]5)n4)c(F)[nH]3)N12 (single isomer, unassigned) [Example 66, (3S*)-3-(4-(6-(1H-pyrazol-5-yl)pyridin-2-yl)-5-fluoro-1H-imidazol-2-yl)-7-(3-chloro-2-fluoro-6-(1H-tetrazol-1-yl)phenyl)-2,3,8,8a-tetrahydroindolizin-5(1H)-one]	0.0259 µM		55 nM	
N#CC1(c2nccc(-c3cnc([C@@H]4CC[C@@H]5CC(c6c(-n7cnnn7)ccc(Cl)c6F)=CC(=O)N54)[nH]3)c2F)COC1 (single isomer, unassigned) [Example 138, 3-(4-(2-((3S,8aR*)-7-(3-chloro-2-fluoro-6-(1H-tetrazol-1-yl)phenyl)-5-oxo-1,2,3,5,8,8a-hexahydroindolizin-3-yl)-1H-imidazol-5-yl)-3-fluoropyridin-2-yl)oxetane-3-carbonitrile]	0.138 µM	32 nM		
Nc1ccc(-c2cnc([C@@H]3CC[C@@H]4C(=O)N(c5cc(Cl)ccc5-n5cnnn5)CC(=O)N43)[nH]2)c(F)n1 (single isomer, unassigned) [Example 360, (6S*,8aR*)-6-(5-(6-amino-2-fluoropyridin-3-yl)-1H-imidazol-2-yl)-2-(5-chloro-2-(1H-tetrazol-1-yl)phenyl)hexahydropyrrolo[1,2-a]pyrazine-1,4-dione]	0.11 µM		12 nM	
Cn1c(=O)[nH]c2cc(-c3cnc([C@@H]4CC[C@@H]5CC(c6c(-n7cnnn7)ccc(Cl)c6F)=CC(=O)N54)[nH]3)ccc21 (relative stereo) [Example 303, 5-(24(3S,8aR*)-7-(3-Chloro-2-fluoro-6-(1H-tetrazol-1-yl)phenyl)-5-oxo-1,2,3,5,8,8a-hexahydroindolizin-3-yl)-1H-imidazol-5-yl)-1-methyl-1H-benzo[d]imidazol-2(3H)-one]	0.0044 µM		0.9 nM	
Cc1c(-c2cnc([C@@H]3CCC4CC(c5c(-n6cnnn6)ccc(Cl)c5F)=CC(=O)N43)[nH]2)ccnc1N (stereo partly drawn) [Example 21, (3S)-3-(5-(2-Amino-3-methylpyridin-4-yl)-1H-imidazol-2-yl)-7-(3-chloro-2-fluoro-6-(1H-tetrazol-1-yl)phenyl)-2,3,8,8a-tetrahydroindolizin-5(1H)-one]	0.0655 µM	6.3 nM		
[2H]C([2H])(O)c1nccc(-c2cnc([C@@H]3CC[C@]4([2H])CC(c5c(-n6cnnn6)ccc(Cl)c5F)=CC(=O)N34)[nH]2)c1F (single isomer, unassigned) [Example 36]	0.0337 µM	5.1 nM		
Cn1cnc(-c2c[nH]c([C@@H]3CCC4CC(c5c(-n6cnnn6)ccc(Cl)c5F)=CC(=O)N43)n2)n1 (stereo partly drawn) [Example 255, (3S)-7-[3-Chloro-2-fluoro-6-(tetrazol-1-yl)phenyl]-3-[4-(1-methyl-1,2,4-triazol-3-yl)-1H-imidazol-2-yl]-2,3,8,8a-tetrahydro-1H-indolizin-5-one]		> 100 nM		> 1 µM
O=C1C=C(c2c(-n3cnnn3)ccc(Cl)c2F)C[C@H]2CC[C@@H](c3ncc(-c4ccnc(OCC5(O)CC5)c4F)[nH]3)N12 [Example 183, (3S,8aR)-7-(3-chloro-2-fluoro-6-(1H-tetrazol-1-yl)phenyl)-3-(5-(3-fluoro-2-((1-hydroxycyclopropyl)methoxy)pyridin-4-yl)-1H-imidazol-2-yl)-2,3,8,8a-tetrahydroindolizin-5(1H)-one]	0.0038 µM		0.6 nM	
CNc1ccc(-c2cnc([C@@H]3CC[C@H]4CC(c5c(-n6cnnn6)ccc(Cl)c5F)=CC(=O)N43)[nH]2)c(F)n1 [Example 291, (3S,8aS)-7-(3-Chloro-2-fluoro-6-(1H-tetrazol-1-yl)phenyl)-3-(5-(2-fluoro-6-(methylamino)pyridin-3-yl)-1H-imidazol-2-yl)-2,3,8,8a-tetrahydroindolizin-5(1H)-one]	0.0074 µM	0.5 nM		
C[C@@H]1C[C@@H](c2ncc(-c3ccc(N)nc3F)[nH]2)N2C(=O)C=C(c3c(-n4cnnn4)ccc(Cl)c3F)C[C@H]12 (single isomer, unassigned) [Example 345, (1*R,3S,8a*R)-3-(5-(6-Amino-2-fluoropyridin-3-yl)-1H-imidazol-2-yl)-7-(3-chloro-2-fluoro-6-(1H-tetrazol-1-yl)phenyl)-1-methyl-2,3,8,8a-tetrahydroindolizin-5(1H)-one]	0.0145 µM	2.6 nM		
O=C1C=C(c2c(-n3cnnn3)ccc(Cl)c2F)C[C@@H]2CC[C@@H](c3ncc(-c4ccnc([C@H](O)C(F)(F)F)c4)[nH]3)N12 (relative stereo) [Example 174, (3S*,8aS*)-7-(3-chloro-2-fluoro-6-(1H-tetrazol-1-yl)phenyl)-3-(5-(2-((S*)-2,2,2-trifluoro-1-hydroxyethyl)pyridin-4-yl)-1H-imidazol-2-yl)-2,3,8,8a-tetrahydroindolizin-5(1H)-one]	0.0259 µM		18.1 nM	
NC(=O)c1cc(-c2cnc([C@@H]3CC[C@@H]4CC(c5c(-n6cnnn6)ccc(Cl)c5F)=CC(=O)N43)[nH]2)ccc1F [Example 233, 5-(2-((3S,8aR)-7-(3-chloro-2-fluoro-6-(1H-tetrazol-1-yl)phenyl)-5-oxo-1,2,3,5,8,8a-hexahydroindolizin-3-yl)-1H-imidazol-5-yl)-2-fluorobenzamide]	0.0067 µM	24.2 nM		
CN(C)c1ccc(-c2cnc([C@@H]3CCC4CC(c5c(-n6cnnn6)ccc(Cl)c5F)=CC(=O)N43)[nH]2)c(F)n1 (stereo partly drawn) [Example 315, (3S)-7-(3-Chloro-2-fluoro-6-(1H-tetrazol-1-yl)phenyl)-3-(5-(6-(dimethylamino)-2-fluoropyridin-3-yl)-1H-imidazol-2-yl)-2,3,8,8a-tetrahydroindolizin-5(1H)-one]	0.0348 µM	31.1 nM		
COc1ccc(-c2c[nH]c([C@@H]3CC[C@H]4CC(c5c(-n6cnnn6)ccc(Cl)c5F)=CC(=O)N43)n2)c(NC(=O)C2CC2)c1 [Example 264, N-[2-[2-[(3S,8aS)-7-[3-Chloro-2-fluoro-6-(tetrazol-1-yl)phenyl]-5-oxo-2,3,8,8a-tetrahydro-1H-indolizin-3-yl]-1H-imidazol-4-yl]-5-methoxy-phenyl]cyclopropanecarboxamide]	0.0021 µM	1.1 nM		
O=C1Nc2ccc(-c3cnc([C@@H]4CC[C@H]5CC(c6c(-n7cnnn7)ccc(Cl)c6F)=CC(=O)N54)[nH]3)cc2CO1 (relative stereo) [Example 278]	0.0019 µM		0.5 nM	
O=C1C=C(c2c(-n3cnnn3)ccc(Cl)c2F)C[C@H]2CC[C@@H](c3nc(-c4cccc5[nH]ncc45)c[nH]3)N12 [Example 51, (3S,8aR)-3-(4-(1H-indazol-4-yl)-1H-imidazol-2-yl)-7-(3-chloro-2-fluoro-6-(1H-tetrazol-1-yl)phenyl)-2,3,8,8a-tetrahydroindolizin-5(1H)-one]	0.0044 µM	3.8 nM		
Cn1cc(-c2ccccc2NC(=O)C2CC2)nc1[C@@H]1CC[C@@H]2CC(c3c(-n4cnnn4)ccc(Cl)c3F)=CC(=O)N21 (single isomer, unassigned) [Example 298, N-(2-(2-((3S,8aR*)-7-(3-Chloro-2-fluoro-6-(1H-tetrazol-1-yl)phenyl)-5-oxo-1,2,3,5,8,8a-hexahydroindolizin-3-yl)-1-methyl-1H-imidazol-4-yl)phenyl)cyclopropanecarboxamide]		> 100 nM		1.05 µM
CCOC(=O)Nc1ncccc1-c1c[nH]c([C@@H]2CC[C@@H]3CC(c4c(-n5cnnn5)ccc(Cl)c4F)=CC(=O)N32)n1 [Example 254, Ethyl N-[3-[2-[(3S,8aR)-7-[3-chloro-2-fluoro-6-(tetrazol-1-yl)phenyl]-5-oxo-2,3,8,8a-tetrahydro-1H-indolizin-3-yl]-1H-imidazol-4-yl]-2-pyridyl]carbamate]	0.15 µM	16.7 nM		
O=C(Nc1cnccc1-c1c[nH]c([C@@H]2CCC3CC(c4c(-n5cnnn5)ccc(Cl)c4F)=CC(=O)N32)n1)C1CC1 (stereo partly drawn) [Example 370, N-(4-(2-((3S)-7-(3-chloro-2-fluoro-6-(1H-tetrazol-1-yl)phenyl)-5-oxo-1,2,3,5,8,8a-hexahydroindolizin-3-yl)-1H-imidazol-4-yl)pyridin-3-yl)cyclopropanecarboxamide]	0.0009 µM	0.2 nM		
